In paper PMC9481570, “A small molecule antagonist of SMN disrupts the interaction between SMN and RNAP II” (Nature Communications, 2022) one finds Kd data, which are given here for 1 compound.

The assay deals with T1, SMNDC1 (Homo sapiens, UniProt O75940).
T1 construct: SMNDC1 (aa 53–130); His (N, cleaved yes); made in house; host or cells: E. coli BL21 (DE3) Codon plus RIL
Description: ITC binding to SMNDC1. Conditions: Supplementary Fig. 2; read-out: Kd, ITC binding curve, SMNDC1. The text has this: The coding DNA fragments of following Tudor domains were cloned into pET28-MHL vector: SMN (aa 82–147), UHRF1 (aa 126–285), SMNDC1 (aa 53–130), TDRD3 (aa 554–611), SND1 (aa 650–910), TDRD2 (aa 327–420), FXR1 (aa 2–132), PHF1 (aa 28–87), SGF29 (aa 115–293), JMJD2A (aa 897–1101), 53BP1 (aa 1483–1606), SETDB1 (aa 190–410), LBR (aa 1–67), ZGPAT (aa 120–271). The coding regions of chromodomain of CBX7 (aa 8–62), PWWP domain of DNMT3A (aa 275–417), WD40 repeats of WDR5 (aa 24–334) and CW domain of ZCWPW2 (aa 21–78) were also subcloned into pET28-MHL vector to generate N-terminally His-tagged fusion protein. The MBT repeats of L3MBTL1 (aa 200–522) and L3MBTL2 (aa 170–625) were subcloned into pET28GST-LIC vector to generate N-terminally GST-His-tagged fusion protein. All the plasmids were generated by ligase independent cloning (Vazyme Biotech, C112 or ABclonal Technology, RK21020). […] The molecular weight of all protein samples was measured by mass spectrometry.
For the ITC measurement, the concentrated proteins were diluted into 20 mM Tris-HCl, pH 7.5, 150 mM NaCl (ITC buffer); the lyophilized compounds were dissolved in the same buffer, and the pH value was adjusted by adding 2 M NaOH or 2 M HCl. […] Compound concentrations were calculated from the mass and the volume of the solvent. […]

For orientation: Kd means the equilibrium constant for the complex coming apart.

T1 sequence (O75940 53-130): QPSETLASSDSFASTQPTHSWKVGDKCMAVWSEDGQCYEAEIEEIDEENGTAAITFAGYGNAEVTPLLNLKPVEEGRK

Turning to `Cn1c2c(c(=N)c3c1CCC3)CCC2` [Compound 1, 4-methyl-2,3,4,5,6,7-hexahydrodicyclopenta[b,e]pyridin-8(1H)-imine], the Kd was determined as 2800 ± 200 nM.
